# Test results published in US20110319379A1, “Substituted Indazole Amides And Their Use As Glucokinase Activators” (priority 2009, published 2011).
# Molecular target: T1, recombinant human glucokinase (beta cell isoform) (Homo sapiens, UniProt P35557)
# T1 construct: Full-length glucokinase (beta cell isoform) was His-tagged at the N-terminus; His tag (N); made in house; host or cells: E. coli BL21(DE3), vector pBCGK
# T1 sequence (P35557 1-465): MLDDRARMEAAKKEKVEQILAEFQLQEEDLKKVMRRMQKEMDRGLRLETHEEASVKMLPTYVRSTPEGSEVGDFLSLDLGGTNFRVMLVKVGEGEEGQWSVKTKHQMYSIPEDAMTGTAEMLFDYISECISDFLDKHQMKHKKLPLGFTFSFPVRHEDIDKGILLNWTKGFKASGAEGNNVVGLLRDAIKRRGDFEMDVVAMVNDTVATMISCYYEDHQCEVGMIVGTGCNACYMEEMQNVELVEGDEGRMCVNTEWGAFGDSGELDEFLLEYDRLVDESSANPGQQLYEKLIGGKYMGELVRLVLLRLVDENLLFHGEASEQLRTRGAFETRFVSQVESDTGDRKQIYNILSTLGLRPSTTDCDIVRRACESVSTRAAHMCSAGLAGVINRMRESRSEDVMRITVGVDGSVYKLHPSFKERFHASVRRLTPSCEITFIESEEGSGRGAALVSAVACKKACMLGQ
# Experiment: Assay 1: Evaluating Activator Potency and Maximum Activation at 5 mM Glucose
# Type: biochemical
# Conditions: Assay 1; 5 mM glucose; NADH depletion at 340 nm, PK/LDH coupled; read-out: Glucokinase EC50
# Method: Representative compounds of this invention were evaluated in biochemical assays (Assay 1 or Assay 2) to characterize their glucokinase activation properties.
# The recombinant human glucokinase protein utilized in both assays was prepared and purified as described below.
# BL21(DE3) cells (Invitrogen Corporation, Carlsbad, Calif.) containing pBCGK (C or N H is) vector were grown at 37° C. (in 2XYT) until the OD600 was between 0.6-1.0. Expression was induced by addition of isopropylthiogalactoside to a final concentration of 0.1-0.2 mM to the cells which were then incubated overnight at 23° C. The next day, cells were harvested via centrifugation at 5000 rpm for 15 minutes at 4° C. The cell pellet was stored at −80° C. for future purification.
# Beta Cell Glucokinase His-Taq Purification Conditions: A Ni-NTA (Quigan, Germantown, Md.) column (15-50 mL) was used for separation. Two buffers were prepared, 1) a lysis/nickel equilibration and wash buffer and 2) a nickel elution buffer. The lysis/equilibration/wash buffer was prepared as such: 25 mM HEPES buffer at pH 7.5, 250 mM NaCl, 20 mM imidazole, and 14 mM β-mercaptoethanol as final concentrations. The elution buffer was prepared as such: 25 mM HEPES at pH 7.5, 250 mM NaCl, 400 mM imidazole, and 14 mM β-mercaptoethanol as final concentrations. The buffers were each filtered with a 0.22 μm filter prior to use. The cell pellet (1 L culture) was resuspended in 300 mL of the lysis/equilibration buffer. The cells were then lysed (3 times) with a Microfluidics Model 110Y microfluidizer (Microfluidics Corporation, Newton, Mass.). The slurry was centrifuged with a Beckman Coulter Model LE-80K ultracentrifuge (Beckman Coulter, Fullerton, Calif.) at 40,000 rpm for 45 minutes at 4° C. The supernatant was transferred to a chilled flask. A volume of 20 μl was saved for gel analysis. A Pharmacia AKTA (GMI, Inc., Ramsey, Minn.) purification system was used for separation. The prime lines were purged with lysis/equilibration buffer. The Ni-NTA column was equilibrated with 200 mL of the lysis/equilibration buffer at a flow rate of 5 mL/minute. The supernantant was loaded over the column at 4 mL/minute and the flow-through was collected in a flask. The unbound proteins were washed with lysis/equilibration buffer at a flow rate of 5 mL/minute until the ultraviolet reaches baseline. The protein was then eluted from the column with the imidazole elution buffer via imidazole gradient 20 mM to 400 mM over 320 mL. The column was then stripped of any additional protein with 80 mL of the elution buffer. The elution fractions were each 8 mL, for a total yield of 50 samples. Fractions were analyzed by sodium dodecyl sulfate polyacrylamide (SDS-PAGE) and the fractions containing protein of interest were pooled and concentrated to 10 mL using ultrafiltration cell with a 10,000 molecular weight cut-off (MWCO) Millipore membrane (Sigma-Aldrich, St. Louis, Mo.) under nitrogen gas (60 psi). Protein was further purified by size exclusion chromatography (SEC) using a […] (320 mL) (Amersham Pharmacia, Uppsala, Sweden). SEC was equilibrated with 450 mL sizing buffer containing 25 mM HEPES pH 7.0, 50 mM NaCl, and 5 mM dithiothreitol. Concentrated protein was then loaded over SEC and elution with 400 mL sizing buffer was performed overnight at 0.5 mL/minute. The elution fractions were 5 mL each. The fractions were analyzed by SDS-PAGE and protein containing fractions were pooled. Concentration was measured using Bradford Assay/BSA Standard. Purified protein was stored in small aliquots at −80° C.
# Assay 1: Evaluating Activator Potency and Maximum Activation at 5 mM Glucose
# Full-length glucokinase (beta cell isoform) was His-tagged at the N-terminus and purified by a Ni column followed by size exclusion chromatography as described above. Glucose was obtained from Calbiochem (San Diego, Calif.) and other reagents were purchased from Sigma-Aldrich (St. Louis, Mo.).
row,EC50,SMILES
1,1.95 µM,"CCS(=O)(=O)c1ccc(Oc2cc(C(=O)Nc3cnc(C)cn3)cc3nn(C)cc23)cc1 [Example 1T, 4-[4-(ethylsulfonyl)phenoxy]-2-methyl-N-(5-methylpyrazin-2-yl)-2H-indazole-6-carboxamide]"
2,1.89 µM,"Cc1cnc(NC(=O)c2cc(Oc3ccc(S(=O)(=O)C4CC4)cc3)c3cn(C)nc3c2)cn1 [Example 1U, 4-[4-(cyclopropylsulfonyl)phenoxy]-2-methyl-N-(5-methylpyrazin-2-yl)-2H-indazole-6-carboxamide]"
3,1.5 µM,"Cn1cc2c(Oc3ccc(S(=O)(=O)C4CC4)cc3)cc(C(=O)Nc3ccccn3)cc2n1 [Example 1V, 4-[4-(cyclopropylsulfonyl)phenoxy]-2-methyl-N-pyridin-2-yl-2H-indazole-6-carboxamide]"
4,1.48 µM,"CCn1cc2c(Oc3ccc(S(=O)(=O)C4CC4)cc3)cc(C(=O)Nc3cnc(C)cn3)cc2n1 [Example 1W, 4-[4-(cyclopropylsulfonyl)phenoxy]-2-ethyl-N-(5-methylpyrazin-2-yl)-2H-indazole-6-carboxamide]"
5,0.863 µM,"CCn1cc2c(Oc3ccc(S(=O)(=O)C4CC4)cc3)cc(C(=O)Nc3ccccn3)cc2n1 [Example 1X, 4-[4-(cyclopropylsulfonyl)phenoxy]-2-ethyl-N-pyridin-2-yl-2H-indazole-6-carboxamide]"
6,1.08 µM,"Cc1ccc(NC(=O)c2cc(Oc3cnc(C(=O)N(C)C)nc3)c3cn(C)nc3c2)nc1 [Example 1Z, 4-{[2-(dimethylcarbamoyl)pyrimidin-5-yl]oxy}-2-methyl-N-(5-methylpyridin-2-yl)-2H-indazole-6-carboxamide]"

# Same assay, conditions: Assay 1; 5 mM glucose; read-out: Glucokinase EC50
row,EC50,SMILES
1,3.34 µM,"Cc1cnc(NC(=O)c2cc(Oc3cnc(C(=O)N(C)C)nc3)c3cn(C)nc3c2)cn1 [Example 1Y, 4-{[2-(dimethylcarbamoyl)pyrimidin-5-yl]oxy}-2-methyl-N-(5-methylpyrazin-2-yl)-2H-indazole-6-carboxamide]"
